From patent EP2016954A1, “Antibodies against 4-(methylnitrosamino)-1-(3-pyridyl)-1-butanone and metabolites thereof” (Muller, Claude P., priority 2007, dated 2009)
Several values for one entry are separate records, joined by “and”; a condition that tells them apart may be missing. Identical values can stand only once.

Legend:
[1] = test system: P7H3; test: Competition ELISA with mAb P7H3; format: binding, mouse; settings: for IC50: competitor inhibiting binding of P7H3; for inhibition of P7H3 binding: competition ELISA, result in words
Description: (§1) In all competition experiments, optimal antigen coating conditions and serum dilutions were determined by direct ELISA. 384-well plates were coated with the minimal amount of antigen required for maximal signal. Sera or mAb supernatants were diluted to obtain 70% binding and a signal of 1.0 to 1.5 O.D. at 0% competition (highest signal). The competitors (NNK and its metabolites (NNAL, NNK-N-ox, NNAL-N-ox, keto acid (1-(3-pyridyl)-1-butanone-4-carboxylic acid), PBCA (1-(3-pyridyl)-1-butanol-4-carboxylic acid), PB (1-(3-pyridyl)-1-butanediol) and HPB (4-hydroxy-1-(3-pyridyl)-1-butanone)), from Toronto Research Chemicals Inc., Canada and Acros Organics, Geel, Belgium) were resuspended in 100% dimethylsulfoxide and stock solutions of […] were frozen at -80°C. Competitors were mixed 1:1 with sera or mAb supernatants to final concentrations of 0 to 512 µM for mAbs or 0 to 1024 µM for serum. Zero (highest signal) and 100% competition (background signal) were determined using no or NNK-C2 as competitor. The difference between these two values corresponds to the dynamic range of the assay. For each competitor concentration, the 50% of inhibitory concentration, IC50 was calculated. Experiments were independently repeated three times and data were analyzed used SigmaStat software. Net OD was calculated by subtraction of the relevant background as described in each figure.

[2] = test system: P9D5; test: Competition ELISA with mAb P9D5 on immobilized [NNK-C2]-OVA; format: binding, mouse; settings: for IC50: competitor inhibiting binding of P9D5 to [NNK-C2]-OVA; for IC50 compared with the one of NNK: P9D5, result in words; for inhibition of P9D5 binding: competition ELISA, result in words
Description: as §1

[3] = test system: P9D5 and P7H3; test: Competition ELISA, results stated jointly for both mAbs; format: binding, mouse; settings: for IC50: range over P9D5 and P7H3; for binding of the antibodies: N-oxidation of the pyridyl ring, result in words
Description: as §1

[4] = test system: anti-[NNK-C2]-DT sera; test: Competition ELISA with mouse sera on coated [NNK-C2]-OVA; format: binding, BALB/c mice; settings: for IC50: competitor inhibiting binding of serum antibodies to coated [NNK-C2]-OVA; for specific reactivity of mouse sera: competition ELISA
Description: Specific antibodies were monitored after each injection of [NNK-C2]-DT. […] NNK-specific antibodies were monitored by competition ELISA by adding increasing concentrations of NNK as competitors (0-256µM) (Figure 1) to measure their capacity to inhibit the binding of serum antibodies to coated [NNK-C2]-OVA.
as §1

[5] = test system: NCI-H82 cells; test: NNK-induced proliferation of NCI-H82 cells (ATP bioluminescence); format: cell-based, human; settings: NNK 25 nM, 24h
Description: NCI-H82 cells were obtained from European Collection of Cell Cultures and maintained in RPMI 1640 with 2 mM L-glutamine (Biowhittaker, Verviers, BE) with the above supplements ("NCI-H82 medium"). Every 2 or 3 days cell medium was renewed. Cells were subcultured once a week. All cultures were mycoplasma-free.
For proliferation experiments, NCI-H82 cells were seeded at a concentration of about 8 x 10^3 cells/well in 200 µl of NCI-H82 medium on collagen type I coated 96-well plates (Greiner Bio-one, Wemmel, BE) and incubated at 37°C and 10% CO2. Proliferation assays were performed at 10% CO2 since CO2 seems to act as a potent messenger molecule for SCLC cells, enhancing the susceptibility of this cancer cell to a host of autocrine and paracrine growth-stimulating signals. After 18h, medium was replaced by fresh NCI-H82 medium containing only 0.15% heat-inactivated fetal bovine serum ("low serum medium") 6h prior NNK treatment. Stock solutions of NNK were prepared in dimethyl sulfoxide. […] Cell proliferation was assessed 24h after treatment using the ViaLightTM HS kit according to the manufacturer's instructions (Cambrex Bioscience, Verviers, BE). Bioluminescence of ATP present in metabolically active cells, was measured on a GENios Plus fluorescence plate reader (Tecan, Mechelen, BE). […]

SMILES	IC50 [2]	IC50 [3] [µM]	inhibition of P7H3 binding [1]	IC50 [4] [µM]	other results
Cc1cccnc1 [3-picoline]	400 µM				IC50 [1]: 320 µM
CCOC(=O)c1cccnc1 [ENAT, ethylnicotinate]	49 µM	49 to 80			IC50 [1]: 80 µM
O=C(CCCO)c1cccnc1 [HPB, 4-hydroxy-1-(3-pyridyl)-1-butanone]	50 µM		moderately inhibited	80	
O=C(O)c1ccc[n+]([O-])c1 [NIA-N-Ox, nicotinic acid-N-oxide]					binding of the antibodies [3]: totally obliterates binding
CN(CCCC(O)c1cccnc1)N=O (centres unmarked) [NNAL, 4-(methylnitrosamino)-1-(3-pyridyl)-1-butanol]	20 µM	29 to 93		80	
CN(CCCC(O)c1ccc[n+]([O-])c1)N=O (centres unmarked) [NNAL-N-Ox, 4-(methylnitrosamino)-1-(3-pyridyl-N-oxide)-1-butanol]					specific reactivity of mouse sera [4]: essentially no specific reactivity was detected; binding of the antibodies [3]: totally obliterates binding
CN(CCCC(=O)c1cccnc1)N=O [NNK, 4-(methylnitrosamino)-1-(3-pyridyl)-1-butanone]	63 µM and 80 µM	80 to 160		26	IC50 [1]: 160 µM; increase of cell number in comparison to unstimulated control cells [5]: 2 to 3 fold
NCCN(CCCC(=O)c1cccnc1)N=O [NNK-C2, 4-[2-amino-ethyl(nitrosamino)]-1-pyridine-3-yl-butane-1-one]	3.7 µM	4.4 to 12			
CN(CCCC(=O)c1ccc[n+]([O-])c1)N=O [NNK-N-Ox, 4-(methylnitrosamino)-1-(3-pyridyl-N-oxide)-1-butanone]					specific reactivity of mouse sera [4]: essentially no specific reactivity was detected; binding of the antibodies [3]: totally obliterates binding
OCCCC(O)c1cccnc1 (centres unmarked) [PB, 1-(3-pyridyl)-1-butanediol]	72 µM		moderately inhibited	230	
O=C(O)CCC(O)c1cccnc1 (centres unmarked) [PBCA, 1-(3-pyridyl)-1-butanol-4 carboxylic acid]			moderately inhibited		IC50 compared with the one of NNK [2]: significant increase of the IC50; inhibition of P9D5 binding [2]: moderate inhibition
O=C(O)CCC(=O)c1cccnc1 [keto acid, 1-(3-pyridyl)-1-butanone-4 carboxylic acid]			moderately inhibited		IC50 compared with the one of NNK [2]: significant increase of the IC50; inhibition of P9D5 binding [2]: moderate inhibition
